According to US7615380B2, “Methods for modulating an immune response by modulating KRC activity” (President and Fellows of Harvard College, priority 2001, dated 2009):

Experiments:
AP-1 = AP-1 luciferase/GFP reporter in 293T cells; format: cell-based, human
Description: FIG. 21(A) 293T cells were transfected with c-Jun and myc-KRCtr. 48 hours later, lysates were immunoprecipitated with anti-Myc antibody. Immunoprecipitates were probed by western blotting with anti-c-Jun antibody. FIG. 21(B) (left panel) 293T cells were cotransfected with c-Jun and full length His-KRC. 48 hours later, lysates were immunoprecipitated with anti-His antibody (DE8 Omniprobe) and precipitates were probed by western blotting with anti-c-Jun antibody. (right panel) In vitro translated and S35-labelled c-Jun and His-KRCtr were mixed and immunoprecipitated with anti-His antibody. Recovered c-Jun protein was visualized by autoradiography. FIG. 21(C) Jurkat or EL4 T cells were stimulated with PMA plus ionomycin for 45 minutes. Lysates were immunoprecipitated with anti-c-Jun antibody, and immunoprecipitates were probed with specific anti-KRC rabbit antisera. […] 24 hours later, Luciferase activity was determined as above. […] 24 hours later, luciferase activity was determined as above. […]
To examine the functional consequences of AP-1 degradation by KRC, cotransfection experiments in 293T cells with sense or antisense KRC together with a luciferase-tagged AP-1 reporter construct were performed. […] Conversely, cotransfection of antisense KRC increased AP-1 transactivation as evidenced by an increased number of GFP+ cells as well as an increase in the intensity of fluorescence per cell in. […]

JNK = JNK in vitro kinase assay after transfection of 293 cells; format: cell-based, human; conditions: 293 cells cotransfected with TRAF2, 24 hours
Description: Inhibition of TRAF2 (A) and TNFα (B, C) mediated JNK/SAPK activation by ectopic expression of KRC. (A) 293 T cells were transfected with 400 ng of TRAF2 and 2 μg of the indicated expression vector. Twenty-four hours after the transfection, the cells were harvested and lysed, and the endogenous JNK was precipitated with 5 μg of GST-cJUN (1-79) for 4 hours. JNK activity was determined by using GST-cJUN (1-79) as a substrate. (B,C) 293 T cells were cotransfected with vectors encoding HA-tagged JNK2 (500ng) and the indicated expression vector (2 μg). Twenty-four hours after the transfection cells were stimulated for 10 min with 10 ng/ml of TNFα and cells harvested at varying time points. JNK activity was assayed with GST-cJUN (1-79) as substrate.
Anti-HA or anti-FLAG immunoprecipitates were used for immune complex kinase assays that were performed at 30° C. for 30 min with 1 μg of substrate, 10 μCi of γ^32 P ATP, and 10 μM ATP in 30 μl of kinase buffer (20 mM HEPES, pH 7.4, 10 mM MgCl2, 25 mM β-glycerophosphate, 50 μm NA3VO4, and 50 μm DTT). The substrate was GST-c-JUN.

NIH 3T3 cells = test: β-galactosidase cotransfection apoptosis assay in 3T3 cells; format: cell-based; conditions: TNFα 20 ng/ml
Description: 3T3 cells were cotransfected with CMV lacZ vector (300 ng per plate) and either empty expression vector or the expression vectors indicated (2 μg of each). Half of the transfected cultured cells were treated with TNFα (20 ng/ml) at 12 hours after the transfection and the other half left untreated. All the cells were fixed and stained at 36 hours after the transfection. The number of blue cells in each transfection was determined by counting six different fields. A representative experiment of three performed is presented.
β-galactosidase cotransfection assays for determination of cell death were performed as described (Hsu, et al.). Transfected NIH 3T3 cells were washed with PBS, fixed in PBS containing 3% paraformaldehyde for 10 min at 4° C., and washed with PBS. Fixed cells were stained overnight with XGal. The number of blue-stained cells was determined microscopically. The average number from one representative experiment of three is shown.

F-actin = F-actin immunofluorescence in Jurkat T cells; format: cell-based, human
Description: Immunofluorescence of F-actin upon KRC overexpression in Jurkat T cells was performed.

c-Jun/c-Fos AP-1 = test: c-Jun/c-Fos protein stability time course with cycloheximide; format: cell-based
Description: The above experiments mapped the interaction site of KRC with c-Jun to aa 204-1055 of KRC. The interaction of full-length KRC with c-Jun was tested. […] Time course experiments were performed in which overexpressed sense KRC or an antisense KRC previously shown to block production of endogenous KRC protein were coimmunoprecipitated with overexpressed c-Jun and c-Fos. […] The same set of experiments were performed using c-Fos, a very short-lived cellular protein. […] The ability of KRC to promote the degradation of other fos family members Fra1, Fra2 and Fos B was also tested (FIG. 23(D)). […] The protein stability of V-fos was not affected by altering levels of KRC by sense or antisense overexpression.

CD69 = CD69 expression by FACS in transfected Jurkat T cells; format: cell-based, human
Description: KRC was transfected into Jurkat T cells and CD69 expression was measured by FACS analysis.

**Q.** Which results are given for “KRC: full-length KRC zinc finger protein (SEQ ID NO:2) overexpressed from an expression vector”?
**A.** c-Jun and c-Jun plus c-Fos AP-1 activity enhancement (AP-1; AP-1 luciferase reporter): approximately 5 fold; AP-1 activity (luciferase-tagged AP-1 reporter) (AP-1; sense or antisense KRC cotransfection): decreased stimulation of AP-1 activity; TRAF2-dependent JNK activation (JNK): blocked JNK activation only partially; TNFα-induced apoptosis (TNF mediated cytotoxicity) (NIH 3T3 cells): increase in TNF mediated cytotoxicity; actin polymerization (F-actin) (F-actin): reorganization of F-actin filaments; c-Jun degradation (c-Jun/c-Fos AP-1; low dose cycloheximide): rapid degradation of c-Jun; stability of the c-Fos protein (c-Jun/c-Fos AP-1; presence of cycloheximide): compromised; CD69 expression (CD69): increases expression of CD69
